Measurements taken from patent publication US7214507B2, “Plant enzymes for bioconversion” (Plant Research International B.V., priority 2001, dated 2007).
“Also recorded” adds a separate entry of the source.

Experiments:
[1] = system: (+)-germacrene A hydroxylase; test: Conversion of sesquiterpenes by a microsomal pellet of chicory in the presence of NADPH; conditions: for Conversion by the (+)-germacrene A hydroxylase containing microsomal pellet (in words): NADPH, microsomal pellet from chicory roots
Experimental: During the whole procedure the plant material was kept on ice as much as possible. After 5 times several seconds of mixing, the slurry was transferred to the cheesecloth with an additional 10 ml of extraction buffer. The cheesecloth was squeezed out and the filtrate was centrifuged (Sigma 2K15) for 20 minutes at 20,000 g and 4° C. The supernatant was poured over a funnel filled with glass wool. […] The resulting microsomal pellets (about 6) were stored under argon at −80° C.
Before incubation, 10 pellets were pottered in 30 mL of assay buffer consisting of 25 mM Tris pH 7.5), 2 mM DTT, 1 mM ascorbic acid, 5 μM FAD, 5 μM FMN and 10% (v/v) glycerol. The enzyme suspension was divided in 1 mL aliquots and incubated with 5 μL substrate solution in the presence of a 1 mM NADPH-regenerating system that consisted of 1 mM NADPH, 5 mM glucose-6-phosphate, and 1.2 IU glucose-6-phosphate dehydrogenase (all from Sigma). The initial concentration of substrate in each assay was 45 μM and all were done in duplicate. […] After 60 minutes the incubations were stopped by storing them at −20° C. in a freezer.
The enzyme assays were extracted 2 times with 1 mL 20% (v/v) ether in pentane, after the addition of 5 μM cis-nerolidol (Fluka). The organic phase was filtered through a glasswool-plugged (dimethyl chlorosilane-treated, Chrompack) Pasteur pipette that contained 0.4 gram of silica and a little anhydrous MgSO4. The pipette was rinsed with 1.5 mL ether and the extract was concentrated to approximately 50 μL under a stream of nitrogen.

[2] = target: T1, (+)-costunolide synthase (Cichorium intybus, UniProt G3GBK0); test: (+)-Costunolide synthase activity, 20,000 g chicory root supernatant with germacrene acid; format: biochemical, Cichorium intybus L.; conditions: for Percentage Enzyme Activity ± SD, (+)-costunolide synthase: addition at 1 mM, 100% = sum of dehydrosaussurea lactone, saussurea lactone and leucodin peaks with 1 mM NADPH; for Conversion of substrate analogues by the (+)-costunolide synthase (in words): 20,000 g supernatant, NADPH
T1 construct: A cell free extract of chicory roots was prepared from the frozen material; from tissue; host or cells: chicory roots, desalted 20,000 g supernatant
T1 sequence (G3GBK0 1-494): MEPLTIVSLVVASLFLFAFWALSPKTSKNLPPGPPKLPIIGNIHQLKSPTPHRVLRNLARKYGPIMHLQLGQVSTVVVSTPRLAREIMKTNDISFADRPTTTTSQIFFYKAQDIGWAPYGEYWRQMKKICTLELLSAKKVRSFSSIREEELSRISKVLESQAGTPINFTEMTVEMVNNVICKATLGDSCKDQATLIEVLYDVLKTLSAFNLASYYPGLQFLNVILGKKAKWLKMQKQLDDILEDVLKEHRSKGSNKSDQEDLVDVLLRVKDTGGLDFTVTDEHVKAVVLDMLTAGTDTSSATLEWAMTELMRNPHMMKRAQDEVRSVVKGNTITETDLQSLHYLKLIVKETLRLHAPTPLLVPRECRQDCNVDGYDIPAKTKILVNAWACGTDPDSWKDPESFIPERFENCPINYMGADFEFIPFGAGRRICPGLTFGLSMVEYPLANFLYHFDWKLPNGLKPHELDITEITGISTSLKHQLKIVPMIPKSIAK
Experimental: A cell free extract of chicory roots was prepared from the frozen material in the same way as described for isolation of the germacrene A hydroxylase (Example 1), but MgCl2 was not added to the extraction buffer since the accompanying (+)-germacrene A synthase activity was not essential for the detection of (+)-costunolide synthase activity. […] DTT was omitted from the assay buffer, because SH-groups present in DTT might undergo an “Michael-type addition” to the C11–C13 exocyclic double bond of (+)-costunolide Kupchan et al., 1970). […] Incubations were also done with boiled desalted supernatant and in the absence of NADPH. The experiments were repeated with elema-1,3,11(13)-trien-12-oic acid (FIG. 2, 9) and a mixture of α- and γ-costic acid (14) that might serve as substrate analogues for the germacrene acid (4). After 1 h of incubation at 30° C., the reactions were stored in the freezer.
The organic phase was filtered through a glass-wool plugged (dimethyl chlorosilane-treated glasswool; Chrompack) Pasteur pipette that contained 0.45 g of silica and a little anhydrous MgSO4. […] Samples of 2 μL were analysed by GC-MS using an injection port temperature of 320° C. to provoke Cope rearrangement of (+)-costunolide (5). Mass spectra were recorded at 70 eV scanning from 35 to 300 atomic mass units; the GC oven temperature was programmed as described before (de Kraker et al., 1998).
To determine whether the formation of (+)-costunolide (5) from germacrene acid (4) was catalysed by a cytochrome P450-enzyme, the effect of various established cytochrome P450-inhibitors (cytochrome C, metyrapone, clotrimazole, micozanole, and amino-benzotriazole) on this reaction were tested, as well as the effect of CO or an argon atmosphere. The cofactor dependence was also investigated, i.e. NAD(P)^+ or NADH was added instead of NADPH. Experiments were carried out in a similar manner as described for the germacrene A hydroxylase in Example I using a 20,000 g supernatant and 5 μL of 0.2 mM cis-nerolidol as internal standard. Blue-light reversal of CO-inhibition was investigated with gas-mixtures of 10% O2 plus 90% N2 (blank) and 10% O2 plus 90% CO.

[3] = system: (+)-costunolide reductase activity; test: Formation of 11(S),13-dihydrocostunolide from (+)-costunolide by 20,000 g chicory root supernatant; format: biochemical, Cichorium intybus L.; conditions: for Reduction of the C11–C13 exocyclic double bond (in words): 20 μM substrate, NADPH
Experimental: (§1) Incubations were also done with boiled desalted supernatant and in the absence of NADPH. The experiments were repeated with elema-1,3,11(13)-trien-12-oic acid (FIG. 2, 9) and a mixture of α- and γ-costic acid (14) that might serve as substrate analogues for the germacrene acid (4). After 1 h of incubation at 30° C., the reactions were stored in the freezer.
(§2) The organic phase was filtered through a glass-wool plugged (dimethyl chlorosilane-treated glasswool; Chrompack) Pasteur pipette that contained 0.45 g of silica and a little anhydrous MgSO4. […] Samples of 2 μL were analysed by GC-MS using an injection port temperature of 320° C. to provoke Cope rearrangement of (+)-costunolide (5).
(§3) Incubations as described for the germacrene acid were also done with (+)-costunolide (30 μM) to test whether any further enzymatic conversion of this compound would occur during the incubation of germacrene acid. Parthenolide (20 μM) (FIG. 9, 17) was incubated as well since it might be an intermediate in the formation of guaianolides. […] The effect of established cytochrome P450 inhibitors and CO on the conversion of (+)-costunolide was studied, just as the effect of various pyridine nucleotide cofactors and an argon atmosphere.

[4] = system: leucodin biosynthesis; test: Formation of leucodin from (+)-costunolide by 20,000 g chicory root supernatant; format: biochemical, Cichorium intybus L.
Experimental: as §1, §2, §3

[5] = system: (+)-germacrene A hydroxylase; test: Effect of the used solvent for (+)-γ-gurjunene on enzyme activity; format: biochemical, Cichorium intybus L.; conditions: peak height of γ-gurjunene alcohol relative to the internal standard (5 nmol cis-nerolidol); 5 μL of 10 mM γ-gurjunene in the solvent
Experimental: Before experiments as described in this example were started, it was tested which organic solvent could be best used to dissolve the substrate. […] Karp et al., 1990).

[6] = atmosphere: 80% CO + 20% O2 or argon, air = 100%
[7] = pyridine nucleotide cofactor 1 mM, substrate (+)-costunolide
[8] = inhibitor 10 μM, DMSO (1%) control = 100%
[9] = inhibitor 100 μM, control = 100%

## C=C(C)C1CC=C(C)CC1 (single isomer, unassigned; (+)) [(+)-limonene]
[1]
  Conversion by the (+)-germacrene A hydroxylase containing microsomal pellet (in words): Some conversion

## C=C(C)[C@H]1C/C=C(\C)CC/C=C(\C)CC1 [(+)-germacrene A]
[1]; microsomal pellet, pH 7.5, NADPH-regenerating system
  Subsequent oxidations into germacrene aldehyde and acid, share of the produced germacrene alcohol: approx. 15%

## C=C(C)[C@@H]1CC[C@@]2(C)CCCC(=C)[C@@H]2C1 [(+)-β-selinene]
[1]; 50 nmol added
  Share of the added substrate that was hydroxylated: Approximately 30%

## CC1=CC[C@@]23[C@@H]([C@@H]12)[C@H](C(C)C)CC[C@H]3C [(−)-(α)-Cubebene]
[1]
  Conversion by the (+)-germacrene A hydroxylase containing microsomal pellet (in words): not converted

## [C-]#[O+] [CO]
[2]; 90% CO + 10% O2, blue light 450 nm
  Effect on the produced sum of (+)-costunolide, 11(S),13-dihydrocostunolide and leucodin (in words): inhibitory effect
[3]; [6]
  Percentage Enzyme Activity ± SD, Dihydrocostunolide (20): 140 ± 4%
[4]
  Formation of leucodin from (+)-costunolide, effect of inhibitors (in words): strongly inhibited
[4]; [6]
  Percentage Enzyme Activity ± SD, Leucodin (22): 8 ± 1%

## C[S+](C)[O-] [DMSO]
[5]
  Enzyme activity ± SD: 1.80 ± 0.09

## NC(=O)C1=CN([C@@H]2O[C@H](COP(=O)(O)OP(=O)(O)OC[C@H]3O[C@@H](n4cnc5c(N)ncnc54)[C@H](O)[C@@H]3O)[C@@H](O)[C@H]2O)C=CC1 [NADH]
[2]
  Percentage Enzyme Activity ± SD, (+)-costunolide synthase: 7 ± 2%
[3]; [7]
  Percentage Enzyme Activity ± SD, Dihydrocostunolide (20): 14 ± 2%
[4]; [7]
  Percentage Enzyme Activity ± SD, Leucodin (22): 0 ± 0%

## NC(=O)C1=CN([C@@H]2O[C@H](COP(=O)(O)OP(=O)(O)OC[C@H]3O[C@@H](n4cnc5c(N)ncnc54)[C@H](OP(=O)(O)O)[C@@H]3O)[C@@H](O)[C@H]2O)C=CC1 [NADPH]
[2]
  Percentage Enzyme Activity ± SD, (+)-costunolide synthase: 100 ± 8%
[3]; [7]
  Percentage Enzyme Activity ± SD, Dihydrocostunolide (20): ^a100 ± 3 ^ %
[4]; [7]
  Percentage Enzyme Activity ± SD, Leucodin (22): ^a100 ± 10 ^ %

## Nn1nnc2ccccc21 [aminobenzotriazole]
[2]; inhibitor 100 μM
  Reduction of the amount of measurable enzymatic products of germacrene acid: 44%
[3]; [8]
  Percentage Enzyme Activity ± SD, Dihydrocostunolide (20): 75 ± 8%
[4]; [8]
  Percentage Enzyme Activity ± SD, Leucodin (22): 86 ± 33%

## [Ar] [argon]
[2]; 1 mM NADPH + argon atmosphere
  Percentage Enzyme Activity ± SD, (+)-costunolide synthase, argon atmosphere: 0 ± 0%
[3]; [6]
  Percentage Enzyme Activity ± SD, Dihydrocostunolide (20): 134 ± 6%
[4]; [6]
  Percentage Enzyme Activity ± SD, Leucodin (22): 0 ± 0%

## Clc1ccccc1C(c1ccccc1)(c1ccccc1)n1ccnc1 [clotrimazole]
[2]; inhibitor 100 μM
  Reduction of the amount of measurable enzymatic products of germacrene acid: 97%
[3]; [8]
  Percentage Enzyme Activity ± SD, Dihydrocostunolide (20): 119 ± 9%
[4]; [8]
  Percentage Enzyme Activity ± SD, Leucodin (22): 0 ± 0%

## C=C1CC[C@H]2C(=C)CC[C@H]3C(=C)C(=O)O[C@@H]3[C@@H]12 [dehydrocostus lactone]
[3]
  Reduction of the C11–C13 exocyclic double bond (in words): not capable of doing the same
[3]; listed as dehydrocostuslacton
  Reduction of the C11–C13 exocyclic double bond (in words): not reduced

## C=CC1(C)CCC(C(=C)C(=O)O)CC1C(=C)C (centres unmarked) [elema-1,3,11(13)-trien-12-oic acid]
[2]
  Conversion of substrate analogues by the (+)-costunolide synthase (in words): no detectable conversion; also recorded: not capable of converting

## CCO [ethanol]
[5]
  Enzyme activity ± SD: 1.87 ± 0.01

## CC(C)=C1C/C=C(\C)CC/C=C(\C)CC1=O [germacrone]
[1]
  Conversion by the (+)-germacrene A hydroxylase containing microsomal pellet (in words): not converted; also recorded: not accepted as a substrate; also recorded: not hydroxylated

## CCCCCC [hexane]
[5]
  Enzyme activity ± SD: <0.1

## CC(C)O [iso-propanol]
[5]
  Enzyme activity ± SD: 1.76 ± 0.16

## C=C(C)[C@H]1CC=C(C)CC1 [limonene]
[1]
  Conversion by the (+)-germacrene A hydroxylase containing microsomal pellet (in words): hardly converted; also recorded: did hardly occur

## CC(C)(C(=O)c1cccnc1)c1cccnc1 [metyrapone]
[2]; inhibitor 1 mM
  Reduction of the amount of measurable enzymatic products of germacrene acid: 78%
[3]; [9]
  Percentage Enzyme Activity ± SD, Dihydrocostunolide (20): 87 ± 11%
[4]; [9]
  Percentage Enzyme Activity ± SD, Leucodin (22): 70 ± 16%

## Clc1ccc(COC(Cn2ccnc2)c2ccc(Cl)cc2Cl)c(Cl)c1 (centres unmarked) [miconazole]
[2]; inhibitor 100 μM
  Reduction of the amount of measurable enzymatic products of germacrene acid: 71%
[3]; [8]
  Percentage Enzyme Activity ± SD, Dihydrocostunolide (20): 100 ± 5%
[4]; [8]
  Percentage Enzyme Activity ± SD, Leucodin (22): 0 ± 0%

## C=C(C)[C@@H]1CC[C@@]2(C)CCC[C@](C)(O)[C@@H]2C1 [neointermedeol]
[1]
  Less efficiently hydroxylated than β-selinene: 15 fold

## CCCCC [pentane]
[5]
  Enzyme activity ± SD: 0.47 ± 0.07

## C=C(C(=O)O)[C@@H]1CC[C@@]2(C)CCC=C(C)[C@@H]2C1 [α-costic acid]
[2]
  Conversion of substrate analogues by the (+)-costunolide synthase (in words): not capable of converting

## C=C(C(=O)O)[C@@H]1CC[C@@]2(C)CCCC(C)=C2C1 [γ-costic acid]
[2]
  Conversion of substrate analogues by the (+)-costunolide synthase (in words): not converted either

## (−)-(α)-gurjunene
[1]
  Conversion by the (+)-germacrene A hydroxylase containing microsomal pellet (in words): not converted

## (−)-limonene
[1]
  Conversion by the (+)-germacrene A hydroxylase containing microsomal pellet (in words): Some conversion

## cytochrome C: established cytochrome P450 inhibitor
[2]; inhibitor 100 μM
  Reduction of the amount of measurable enzymatic products of germacrene acid: no enzymatic products of germacrene acid (4) were measured
[3]; [9]
  Percentage Enzyme Activity ± SD, Dihydrocostunolide (20): 105 ± 5%
[4]; [9]
  Percentage Enzyme Activity ± SD, Leucodin (22): 0 ± 0%
